The text below walks through data of US10736973B2, “Glucose analogs for diagnosis states” (TECHNOLOGY INNOVATION MOMENTUM FUND (ISRAEL) LIMITED …, priority 2014, dated 2020).

Where only a bound is given, the exact number is not on record here.

For data set [1] the following is noted: rat, in vivo; cited from earlier work.
The subject of another data set is DA3 tumors. The data set can be described thus: CEST NMR of MCW extracts of tumors from treated mice. Format: in vivo, BALB/C mice. The note with it: 25 min after 1.5 g/kg; compared with D-glu; B1=2.5 μT, pH=7.0, T=25° C., 11.7 T. On the procedure: (§1) • Chemicals and Media: 3OMG, D-glucose, D-glucose 6 phosphate, 2-DG and 2-DG-6P sodium salt were obtained from Sigma-Aldrich, Israel; FDG was obtained from Carbosynth Limited, UK. The glucose analogs were prepared at concentration of 10 mM (pH=7.5), containing 10% D2O for NMR field locking. • Cells: DA3-D1-DMBA-3 is a cell line derived from a poorly differentiated mammary adenocarcinoma induced in BALB/C mice by dimethylbenzanthracene. • Animals: BALB/C female mice were purchased and kept in the breeding facility of the Sackler School of Medicine, Tel Aviv University. To induce orthotropic tumors in mice, DA3 cells were injected into the lower left mammary gland of 8 week old (17-22 gr) female BALB/c mice (5×10^5 cells in 100 μL saline). […] Each sample was dissolved in 0.5 ml D2O (99.98%, Biolab, Israel), adjusted at pH=6.5-7 and inserted into 5 mm tube for NMR. • NMR Spectroscopy: 1H NMR Spectra were recorded at 500 MHz in 5 mm tubes on a Bruker 500 MHz DRX with the following parameters: spectral width 7500 Hz, pulse width 5.5 us (corresponding to a 45° flip angle); data size 16 K; relaxation delay 10 s; number of scans=16. […] The chemical exchange contrast was measured by magnetization transfer asymmetry, MTRasym. […]

Data set [2] in a line: CEST NMR of 10 mM glucose analog solutions (MTRasym). The format is physicochemical. Conditions: pH 6.3-7.8 tested, 1.2 ppm, T=25° C., 11.7 T. The procedure: as §1
The conditions of data set [3]: in vivo; cited from earlier work.
Another data set has as its system DA3 mammary tumors. The data set can be described thus: In vivo CEST MRI of DA3 mammary tumor bearing mice. More on the design: species or system BALB/c mice. On the procedure: CEST MRI experiments were performed on a Bruker 7T Biospec scanner with 30 cm bore size on implanted xenograph mammary tumors of mice before and following the injection of the glucose analog 3OMG. DA3 tumor bearing mice that were allowed to grow for 10-14 days, with an average tumor volume of 5 mm^3 were scanned. The mice were anesthetized using isoflurane (1-2%) and scanned with surface coil. Their temperature was monitored and maintained at 37° C. We performed i.p injections of the contrast medium, 3OMG (in saline, pH=7.4).
Images were generated as follows: a series of gradient-echo images were collected from a single 1 mm axial slice of (acquisition matrix 128×64, field of view of 40×40 mm2) after 1.2 s presaturation pulse of 2.5 μT (106 Hz) at ±1.2 ppm from the water signal. For the MTRasym plot, the mean intensities were used within the selected region of interest (ROI) within the tumor.
Having determined in vitro that 3OMG concentrations of only a few millimolar could be detected with CEST method (FIGS. 1-4), the determination of the potential use of 3OMG CEST MRI to image mammary tumors, in vivo, was carried out. Thus performed 3OMG CEST MRI experiments were carried out on mice bearing DA3 tumors injected with 3OMG glucose analog. Tumor anatomy was initially imaged using T2 weighted spin echo sequence (RARE).

The subject of another data set is hexokinase. The note with it: cited from earlier work.

For the compound `O=CC[C@@H](O)[C@H](O)[C@H](O)CO` [2-DG, 2-deoxy-D-glucose], in data set [1], the Toxic high concentration is recorded as 3 g/kg and the Toxicity entry is “toxic at high concentrations”.
On to `CO[C@@H]([C@H](O)[C@H](O)CO)[C@@H](O)C=O` [3OMG, 3-O-methylglucose], for which the “CEST effect for the peak at 1.2 ppm in combined tumor extracts” value in the data set on DA3 tumors was “significantly high”. In addition, the “pH at which the CEST effect has its maximum” value in data set [2] is recorded as roughly 7.5. Moreover, the Excretion entry in data set [3] is given as “entirely excreted by the kidneys”. The “CEST enhancement (% CEST increase) in the tumor” value in the data set with DA3 mammary tumors (i.p. injection 1.5 g/kg, 7T, ±1.2 ppm, 2.5 μT) is “about 20%”. Besides, the “Time after which the enhanced tumor CEST MRI image started to decay” value with DA3 mammary tumors (injection 1.5 g/kg) is greater than 20 min. In addition, the “CEST effect in other organs (apart from the urinary bladder)” value with DA3 mammary tumors (injection 1.5 g/kg, throughout the MRI scans session) was “did not show any significant CEST effect”. In the data set on hexokinase, the Phosphorylation result was “does not undergo phosphorylation” and the Substrate for hexokinase entry was “does not serve as substrate”.
On to `O=C[C@H](F)[C@@H](O)[C@H](O)[C@H](O)CO` [FDG, 2-fluoro-deoxy-D-glucose], for which the Toxicity entry in data set [1] is given as “toxic at high concentrations”.
